Test results published in patent publication EP1295874A2, “Retroviral protease inhibiting compounds” (Abbott Laboratories, priority 1995, dated 1997).
pEC50: −log10 of the molar value.

Legend:
Assay in all cases: microbe, parasite or virus in culture
Format in all cases: cell-based
[1] = tested on: HIV Selected In Vitro by the Compound of Example 2B
[2] = tested on: Ritonavir-Resistant Mutant HIV Clones
[3] = tested on: Ritonavir-Resistant HIV from Patients

For `CC(C)c1nc(CN(C)C(=O)N[C@H](C(=O)N[C@@H](Cc2ccccc2)C[C@H](O)[C@H](Cc2ccccc2)NC(=O)OCc2cncs2)C(C)C)cs1` [Ritonavir], the pEC50 ([1]; Human immunodeficiency virus 1, NL43, Virus NL4-3) was 7.01, the pEC50 ([1]; Human immunodeficiency virus 1, Virus P7) was 6.66 and the pEC50 ([1]; Human immunodeficiency virus 1, Virus P11) was 6.32. For the same compound, the pEC50 ([1]; Human immunodeficiency virus 1, Virus P14) was 5.76, the pEC50 ([1]; Human immunodeficiency virus 1, Virus P17) was 5.68 and the “cross-resistance (fold)” value ([1]; passaged virus P14, P17) was 18-20 fold. For the same compound, the pEC50 ([2]; Human immunodeficiency virus 1, HXB2, Virus Clone Wild Type (HXB2), 0% Human Serum) was 7.19, the pEC50 ([2]; Human immunodeficiency virus 1, HXB2, Virus Clone Wild Type (HXB2), 50% Human Serum) was 5.98 and the pEC50 ([2]; Human immunodeficiency virus 1, Virus Clone E35D, M36I, I54V, A71V, V82T, 0% Human Serum) was 5.93. It also gave a pEC50 ([2]; Human immunodeficiency virus 1, Virus Clone E35D, M36I, I54V, A71V, V82T, 50% Human Serum) of 4.66, a pEC50 ([2]; Human immunodeficiency virus 1, Virus Clone G48V, 0% Human Serum) of 6.95 and a pEC50 ([2]; Human immunodeficiency virus 1, Virus Clone G48V, 50% Human Serum) of 5.77. The pEC50 ([2]; Human immunodeficiency virus 1, Virus Clone I54V, V82T, 0% Human Serum) was 6.21, the pEC50 ([2]; Human immunodeficiency virus 1, Virus Clone I54V, V82T, 50% Human Serum) was 4.78 and the pEC50 ([2]; Human immunodeficiency virus 1, Virus Clone I84V, 0% Human Serum) was 6.85. It also gave a pEC50 ([2]; Human immunodeficiency virus 1, Virus Clone I84V, 50% Human Serum) of 5.57, a pEC50 ([2]; Human immunodeficiency virus 1, Virus Clone K20R, E35D, M36I, I54V, A71V, V82T, 0% Human Serum) of 5.85 and a pEC50 ([2]; Human immunodeficiency virus 1, Virus Clone K20R, E35D, M36I, I54V, A71V, V82T, 50% Human Serum) of 4.80. The pEC50 ([2]; Human immunodeficiency virus 1, Virus Clone L90M, 0% Human Serum) was 7.03, the pEC50 ([2]; Human immunodeficiency virus 1, Virus Clone L90M, 50% Human Serum) was 5.64 and the pEC50 ([2]; Human immunodeficiency virus 1, Virus Clone V82A, 0% Human Serum) was 6.84. For the same compound, the pEC50 ([2]; Human immunodeficiency virus 1, Virus Clone V82A, 50% Human Serum) was 5.39, the pEC50 ([2]; Human immunodeficiency virus 1, Virus Clone V82F, 0% Human Serum) was 6.84 and the pEC50 ([2]; Human immunodeficiency virus 1, Virus Clone V82F, 50% Human Serum) was 5.44. The pEC50 ([2]; Human immunodeficiency virus 1, Virus Clone V82S, 0% Human Serum) was 6.52, the pEC50 ([2]; Human immunodeficiency virus 1, Virus Clone V82S, 50% Human Serum) was 5.04 and the pEC50 ([2]; Human immunodeficiency virus 1, Virus Clone V82T, 0% Human Serum) was 6.84. For the same compound, the pEC50 ([2]; Human immunodeficiency virus 1, Virus Clone V82T, 50% Human Serum) was 5.25, the pEC50 ([2]; Human immunodeficiency virus 1, Virus Clone Wild Type (pNL4-3), 0% Human Serum) was 7.15 and the pEC50 ([2]; Human immunodeficiency virus 1, Virus Clone Wild Type (pNL4-3), 50% Human Serum) was 5.85. The pEC50 ([3]; Human immunodeficiency virus 1, 24 h, Patient No. 313, Day 1, baseline) was 7.92, the pEC50 ([3]; Human immunodeficiency virus 1, 24 h, Patient No. 410, Day 1, baseline) was 7.54 and the pEC50 ([3]; Human immunodeficiency virus 1, 504 h, Patient No. 104, Day 21, V82A) was 7.34. The pEC50 ([3]; Human immunodeficiency virus 1, 672 h, Patient No. 104, Day 28, V82T) was 7.17, the pEC50 ([3]; Human immunodeficiency virus 1, Patient No. 104, Day -1, baseline) was 7.68 and the pEC50 ([3]; Human immunodeficiency virus 1, Patient No. 129, Day 84, M36I, I54V, A71V, V82T) was 6.69. For the same compound, the pEC50 ([3]; Human immunodeficiency virus 1, Patient No. 129, Day 140, K20K/R, M36M/I, I54V, A71A/V, V82T) was 6.17, the pEC50 ([3]; Human immunodeficiency virus 1, Patient No. 129, Day -1, baseline) was 7.62 and the pEC50 ([3]; Human immunodeficiency virus 1, Patient No. 131, Day 88, M36I, 154V>I, V82A) was 6.79. It also gave a pEC50 ([3]; Human immunodeficiency virus 1, Patient No. 131, Day 200, K20K/R, M36I, I54I/V, V82A) of 6.14, a pEC50 ([3]; Human immunodeficiency virus 1, Patient No. 131, Day -28, baseline) of 7.74 and a pEC50 ([3]; Human immunodeficiency virus 1, Patient No. 224, Day 110, L33L/F, V82T/S) of 7.10. The pEC50 ([3]; Human immunodeficiency virus 1, Patient No. 224, Day 190, K20K/N/R, L33L/F, M36M/I, I54V/M, V82S) was 6.30, the pEC50 ([3]; Human immunodeficiency virus 1, Patient No. 224, Day -6, baseline) was 7.54 and the pEC50 ([3]; Human immunodeficiency virus 1, Patient No. 235, Day 167, I54I/V, A71V, V82A. L90L/M) was 7.18. For the same compound, the pEC50 ([3]; Human immunodeficiency virus 1, Patient No. 235, Day -1, baseline) was 8.00, the pEC50 ([3]; Human immunodeficiency virus 1, Patient No. 313, Day 57, M36M/I, V82F) was 7.19 and the pEC50 ([3]; Human immunodeficiency virus 1, Patient No. 313, Day 85, M36M/I, I54I/V, V82S/F/A/T) was 6.56. It also gave a pEC50 ([3]; Human immunodeficiency virus 1, Patient No. 410, Day 57, M36M/I, I54I/V, V82A) of 6.47 and a pEC50 ([3]; Human immunodeficiency virus 1, Patient No. 410, Day 85, M36I, I54V, V82A) of 6.26.
